Counter-ions that a name gives are not always drawn.
What follows are molecules tested against human GluN1/GluN2B NMDA receptors (Homo sapiens, UniProt Q05586+Q13224) (assay: Cell-based calcium flux (FLIPR) assay on cloned human GluN1/GluN2B ion channels expressed in mammalian cells). Details: standard assay; glutamate ~EC40, 10 μM glycine; stable Tet-On cell line.
Experimental: 5.3. Biological Assays: Effect of Compounds of Formula (I) on Cloned Human GluN1/GluN2B Ion Channels Expressed in Mammalian Cells
NMDA receptors are ion channels that are highly permeable to Ca^2+ ions, rendering it possible to monitor NMDA receptor function using cell-based calcium flux assay. In this assay, co-agonists glutamate and glycine are added to cells heterologously expressing human GluN1/GluN2B NMDA receptors to initiate cellular Ca^2+ influx. The time course of the changes in intracellular calcium is measured using a fluorescent dye and a FLIPR (Fluorometric Imaging Plate Reader) device.
Twenty four hours before measurements, the expression of the NMDA receptors in the stable cell line is induced with Tet-On inducible system in the presence of a non-selective NMDA receptor blocker. On the day of the experiment, cell culture media is carefully washed and the cells are loaded with Calcium 5 Dye Kit (Molecular Devices) in dye loading buffer containing 137 mM NaCl, 4 mM KCl, 2 mM CaCl2, 0.5 mM MgCl2 (standard assay) or 1.5 mM MgCl2 (HTS assay), 10 mM HEPES and 5 mM D-glucose; pH 7.4. After 1 h incubation at the room temperature, the dye is washed away with the assay buffer (137 mM NaCl (standard assay) or 150 mM (HTS assay), 4 mM KCl (standard assay) or 3 mM (HTS assay), 2 mM CaCl2, 0.01 mM EDTA, 10 mM HEPES and 5 mM D-glucose; pH 7.4) In the FLIPR TETRA reader, various concentrations of the test compounds are added to the cells for 5 min while fluorescence is monitored to detect potential agonist activity. Next, co-agonists, glutamate and glycine are added for another 5 minutes. The concentration of glutamate corresponding to ˜EC40 (standard assay) or EC40 (HTS assay) is used to maximize the assay's signal window and ability to detect NMDA receptor antagonists and negative allosteric modulators. A saturating concentration (10 μM) of glycine is also present in the assay. A non-selective NMDA receptor antagonist, (+)MK-801 is used as a positive control for antagonist activity. The fluorescent signal in the presence of test compounds is quantified and normalized to the signal defined by the appropriate control wells.

Chain of human GluN1/GluN2B NMDA receptors (Q13224 27-1484, other chains not shown): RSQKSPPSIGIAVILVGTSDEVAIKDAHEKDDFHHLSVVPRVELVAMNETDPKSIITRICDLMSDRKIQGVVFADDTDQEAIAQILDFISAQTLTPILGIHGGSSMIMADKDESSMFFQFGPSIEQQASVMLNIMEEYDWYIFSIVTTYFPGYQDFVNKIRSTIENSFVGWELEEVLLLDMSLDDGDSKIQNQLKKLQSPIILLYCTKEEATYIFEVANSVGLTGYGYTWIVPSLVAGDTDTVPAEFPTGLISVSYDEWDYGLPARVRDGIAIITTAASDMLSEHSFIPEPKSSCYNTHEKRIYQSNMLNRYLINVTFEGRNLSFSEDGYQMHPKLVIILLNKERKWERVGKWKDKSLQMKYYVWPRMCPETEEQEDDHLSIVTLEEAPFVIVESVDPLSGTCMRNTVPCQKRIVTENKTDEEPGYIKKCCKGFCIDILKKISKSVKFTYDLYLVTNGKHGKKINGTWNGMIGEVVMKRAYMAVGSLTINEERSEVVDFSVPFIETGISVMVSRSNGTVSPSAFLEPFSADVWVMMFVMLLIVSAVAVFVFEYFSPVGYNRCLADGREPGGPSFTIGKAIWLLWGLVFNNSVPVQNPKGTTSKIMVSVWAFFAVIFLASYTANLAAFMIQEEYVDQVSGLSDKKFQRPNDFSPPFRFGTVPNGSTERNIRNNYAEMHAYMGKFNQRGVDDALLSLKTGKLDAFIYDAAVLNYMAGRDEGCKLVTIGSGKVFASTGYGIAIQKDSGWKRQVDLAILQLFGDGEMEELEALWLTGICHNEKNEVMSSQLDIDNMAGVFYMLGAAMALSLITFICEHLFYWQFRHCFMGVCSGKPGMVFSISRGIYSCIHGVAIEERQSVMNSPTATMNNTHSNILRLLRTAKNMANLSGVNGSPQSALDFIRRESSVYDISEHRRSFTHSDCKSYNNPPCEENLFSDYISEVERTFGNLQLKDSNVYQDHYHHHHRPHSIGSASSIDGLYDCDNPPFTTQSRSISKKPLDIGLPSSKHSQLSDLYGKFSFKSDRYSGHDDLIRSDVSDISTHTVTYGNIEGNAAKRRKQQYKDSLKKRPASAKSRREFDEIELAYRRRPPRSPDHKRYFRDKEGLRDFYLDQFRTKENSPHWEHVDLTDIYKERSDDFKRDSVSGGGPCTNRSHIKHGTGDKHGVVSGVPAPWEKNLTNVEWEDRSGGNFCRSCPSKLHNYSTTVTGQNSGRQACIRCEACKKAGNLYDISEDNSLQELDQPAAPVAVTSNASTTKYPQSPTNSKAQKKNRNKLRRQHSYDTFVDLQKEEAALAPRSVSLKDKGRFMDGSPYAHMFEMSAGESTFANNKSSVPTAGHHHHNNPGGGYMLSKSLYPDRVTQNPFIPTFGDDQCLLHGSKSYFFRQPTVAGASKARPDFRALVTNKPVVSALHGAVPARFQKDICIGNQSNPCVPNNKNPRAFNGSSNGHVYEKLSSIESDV

IC50 | SMILES
> 3000 nM | CC(C)[C@@H]1COC(=O)N1Cc1cncc(-c2ccc(F)c(OC(F)F)c2)c1 [Example 11, (4R)-3-[[5-[3-(Difluoromethoxy)-4-fluoro-phenyl]-3-pyridyl]methyl]-4-isopropyl-oxazolidin-2-one]
59 nM | O=C1OC2(CCC2)CN1Cc1cncc(-c2ccc(F)c(OC(F)F)c2)c1 [Example 12, 6-[[5-[3-(Difluoromethoxy)-4-fluoro-phenyl]-3-pyridyl]methyl]-8-oxa-6-azaspiro[3.4]octan-7-one]
39 nM | O=C1OC2(COC2)CN1Cc1cncc(-c2ccc(F)c(OC(F)F)c2)c1 [Example 13, 6-[[5-[3-(Difluoromethoxy)-4-fluoro-phenyl]-3-pyridyl]methyl]-2,8-dioxa-6-azaspiro[3.4]octan-7-one]
267 nM | O=C1OC2(CCOCC2)CN1Cc1cncc(-c2ccc(F)c(OC(F)F)c2)c1 [Example 20, 2-[[5-[3-(Difluoromethoxy)-4-fluoro-phenyl]-3-pyridyl]methyl]-4,8-dioxa-2-azaspiro[4.5]decan-3-one]
806 nM | O=C1OC2(CNC2)CN1Cc1cncc(-c2ccc(F)c(C(F)F)c2)c1 [Example 21, 6-[[5-[3-(Difluoromethyl)-4-fluoro-phenyl]-3-pyridyl]methyl]-8-oxa-2,6-diazaspiro[3.4]octan-7-one Trifluoroacetate Salt]
2600 nM | CC(C)[C@H]1COC(=O)N1Cc1cncc(-c2ccc(F)c(C(F)F)c2)c1 [Example 23, (4S)-3-[[5-[3-(Difluoromethyl)-4-fluoro-phenyl]-3-pyridyl]methyl]-4-isopropyl-oxazolidin-2-one]
73 nM | O=C1OCc2ccccc2N1Cc1cncc(-c2ccc(F)c(C(F)F)c2)c1 [Example 24, 1-[[5-[3-(Difluoromethyl)-4-fluoro-phenyl]-3-pyridyl]methyl]-4H-3,1-benzoxazin-2-one]
12 nM | O=C1OC2(CC2)CN1Cc1cncc(-c2ccc(F)c(C(F)F)c2)c1 [Example 29, 5-[[5-[3-(Difluoromethyl)-4-fluoro-phenyl]-3-pyridyl]methyl]-7-oxa-5-azaspiro[2.4]heptan-6-one]
603 nM | CC1(C)CCN(Cc2cncc(-c3ccc(F)c(C(F)F)c3)c2)C(=O)O1 [Example 30, 3-[[5-[3-(Difluoromethyl)-4-fluoro-phenyl]-3-pyridyl]methyl]-6,6-dimethyl-1,3-oxazinan-2-one]
> 3000 nM | CC(C)[C@@H]1COC(=O)N1Cc1cncc(-c2ccc(F)c(C(F)F)c2)c1 [Example 31, (4R)-3-[[5-[3-(Difluoromethyl)-4-fluoro-phenyl]-3-pyridyl]methyl]-4-isopropyl-oxazolidin-2-one]
26 nM | O=C1OC2(CCC2)CN1Cc1cncc(-c2ccc(F)c(C(F)F)c2)c1 [Example 32, 6-[[5-[3-(Difluoromethyl)-4-fluoro-phenyl]-3-pyridyl]methyl]-8-oxa-6-azaspiro[3.4]octan-7-one]
16 nM | C[C@@H]1CN(Cc2cncc(-c3ccc(F)c(C(F)F)c3)c2)C(=O)O1 [Example 33, (5R)-3-[[5-[3-(Difluoromethyl)-4-fluoro-phenyl]-3-pyridyl]methyl]-5-methyl-oxazolidin-2-one]
30 nM | O=C1OC2(COC2)CN1Cc1cncc(-c2ccc(F)c(C(F)F)c2)c1 [Example 34, 6-[[5-[3-(Difluoromethyl)-4-fluoro-phenyl]-3-pyridyl]methyl]-2,8-dioxa-6-azaspiro[3.4]octan-7-one]
108 nM | O=C1OC2(CCOCC2)CN1Cc1cncc(-c2ccc(F)c(C(F)F)c2)c1 [Example 42, 2-[[5-[3-(Difluoromethyl)-4-fluoro-phenyl]-3-pyridyl]methyl]-4,8-dioxa-2-azaspiro[4.5]decan-3-one]
2620 nM | O=C1OC2(CNC2)CN1Cc1cncc(-c2ccc(F)c(OC(F)F)c2)c1 [Example 43, 6-[[5-[3-(Difluoromethoxy)-4-fluoro-phenyl]-3-pyridyl]methyl]-8-oxa-2,6-diazaspiro[3.4]octan-7-one Trifluoroacetate Salt]
12 nM | Cc1cc(-c2cncc(CN3CCOC3=O)c2)ccc1F [Example 44, 3-[[5-(4-Fluoro-3-methyl-phenyl)-3-pyridyl]methyl]oxazolidin-2-one]
9 nM | Cc1c(F)ccc(-c2cncc(CN3CCOC3=O)c2)c1F [Example 45, 3-[[5-(2,4-Difluoro-3-methyl-phenyl)-3-pyridyl]methyl]oxazolidin-2-one]
26 nM | O=C1OCCN1Cc1cncc(-c2cccc(C(F)(F)F)c2)c1 [Example 46, 3-[[5-[3-(Trifluoromethyl)phenyl]-3-pyridyl]methyl]oxazolidin-2-one]

IC50 | SMILES
11 nM | O=C1OCCN1Cc1cncc(-c2ccc(Cl)c(OC(F)F)c2)c1 [Example 47, 3-[[5-[4-Chloro-3-(difluoromethoxy)phenyl]-3-pyridyl]methyl]oxazolidin-2-one]
912 nM | O=C1OCCN1Cc1cncc(-c2ccc(OC(F)(F)F)c(F)c2)c1 [Example 48, 3-[[5-[3-Fluoro-4-(trifluoromethoxy)phenyl]-3-pyridyl]methyl]oxazolidin-2-one]
30 nM | CC(F)(F)c1cc(-c2cncc(CN3CCOC3=O)c2)ccc1F [Example 49, 3-[[5-[3-(1,1-Difluoroethyl)-4-fluoro-phenyl]-3-pyridyl]methyl]oxazolidin-2-one]
786 nM | O=C1OCCN1Cc1cncc(-c2cccc(C(F)(F)F)n2)c1 [Example 50, 3-[[5-[6-(Trifluoromethyl)-2-pyridyl]-3-pyridyl]methyl]oxazolidin-2-one]
1000 nM | O=C1OCCN1Cc1cncc(-c2ccnc(C(F)(F)F)c2)c1 [Example 51, 3-[[5-[2-(Trifluoromethyl)-4-pyridyl]-3-pyridyl]methyl]oxazoidin-2-one]
27 nM | O=C1OCCCN1Cc1cncc(-c2ccc(F)c(C(F)(F)F)c2)c1 [Example 52, 3-[[5-[4-Fluoro-3-(trifluoromethyl)phenyl]-3-pyridyl]methyl]-1,3-oxazinan-2-one]
12 nM | [2H]C([2H])(c1cncc(-c2ccc(F)c(OC(F)F)c2)c1)N1CCCOC1=O [Example 55, 3-[Dideuterio-[5-[3-(difluoromethoxy)-4-fluoro-phenyl]-3-pyridyl]methyl]-1,3-oxazinan-2-one]
9 nM | [2H]C([2H])(c1cc(-c2ccc(F)c(OC(F)F)c2)cnc1C)N1CCCOC1=O [Example 56, 3-[Dideuterio-[5-[3-(difluoromethoxy)-4-fluoro-phenyl]-2-methyl-3-pyridyl]methyl]-1,3-oxazinan-2-one]
23 nM | [2H]C([2H])(c1cc(-c2ccc(F)c(C)c2)cnc1C)N1CCCOC1=O [Example 57, 3-[Dideuterio-[5-(4-fluoro-3-methyl-phenyl)-2-methyl-3-pyridyl]methyl]-1,3-oxazinan-2-one]
25 nM | [2H]C([2H])(c1cc(-c2ccc(F)c(C(F)F)c2)cnc1C)N1CCCOC1=O [Example 58, 3-[Dideuterio-[5-[3-(difluoromethyl)-4-fluoro-phenyl]-2-methyl-3-pyridyl]methyl]-1,3-oxazinan-2-one]
13 nM | [2H]C([2H])(c1cc(-c2ccc(F)c(C(F)F)c2)cnc1C)N1CCOC1=O [Example 59, 3-[Dideuterio-[5-[3-(difluoromethyl)-4-fluoro-phenyl]-2-methyl-3-pyridyl]methyl]oxazolidin-2-one]
128 nM | Cc1ncc(-c2cccc(C(F)F)c2)cc1CN1CCCOC1=O [Example 62, 3-[[5-[3-(Difluoromethyl)phenyl]-2-methyl-3-pyridyl]methyl]-1,3-oxazinan-2-one]
174 nM | Cc1ncc(-c2cccc(OC(F)F)c2)cc1CN1CCCOC1=O [Example 63, 3-[[5-[3-(Difluoromethoxy)phenyl]-2-methyl-3-pyridyl]methyl]-1,3-oxazinan-2-one]
406 nM | Cc1ncc(-c2cccc(Cl)c2)cc1CN1CCCOC1=O [Example 64, 3-[[5-(3-Chlorophenyl)-2-methyl-3-pyridyl]methyl]-1,3-oxazinan-2-one]
30 nM | Cc1ncc(-c2ccc(F)c(Cl)c2)cc1CN1CCCOC1=O [Example 65, 3-[[5-(3-Chloro-4-fluoro-phenyl)-2-methyl-3-pyridyl]methyl]-1,3-oxazinan-2-one]
23 nM | Cc1cc(-c2cnc(C)c(CN3CCCOC3=O)c2)ccc1F [Example 66, 3-[[5-(4-Fluoro-3-methyl-phenyl)-2-methyl-3-pyridyl]methyl]-1,3-oxazinan-2-one]
344 nM | Cc1ncc(-c2ccc(F)c(F)c2)cc1CN1CCCOC1=O [Example 67, 3-[[5-(3,4-Difluorophenyl)-2-methyl-3-pyridyl]methyl]-1,3-oxazinan-2-one]

Reference: patent publication US11447503B2, “Pyridine carbamates and their use as GLUN2B receptor modulators” (JANSSEN PHARMACEUTICA NV, priority 2019, dated 2022)
